Results on 7 compounds are retold here after BindingDB's records for doi:10.1016/j.bmcl.2006.10.059 (Merck Research Laboratories, 2007).

The nature of this assay: Inhibition of MCP1-stimulated chemotaxis in monocytes transfected with human CCR2.

pIC50: −log10 of the molar value.

`CC(=O)Nc1nc(C(CCN2CCC3(C=Cc4ccccc43)CC2)C(=O)NCc2cc(C(F)(F)F)cc(C(F)(F)F)c2)cs1` (configuration not stated) [N-{[3,5-bis(trifluoromethyl)phenyl]methyl}-2-(2-acetamido-1,3-thiazol-4-yl)-4-{spiro[indene-1,4'-piperidine]-1'-yl}butanamide] gave a pIC50 of 9.15. As to `CC(=O)Nc1nc([C@H](CCN2CCC(c3ccccc3)CC2)C(=O)NCc2cc(C(F)(F)F)cc(C(F)(F)F)c2)cs1` [(S)-N-(3,5-bis(trifluoromethyl)benzyl)-2-(2-acetamidothiazol-4-yl)-4-(4-phenylpiperidin-1-yl)butanamide], the pIC50 is 9.15. The figure for `CC(=O)Nc1nc(C(CCN2CCC3(C=Cc4ccccc43)[C@@H](C)C2)C(=O)NCc2cc(C(F)(F)F)cc(C(F)(F)F)c2)cs1` (stereo partly drawn) [N-{[3,5-bis(trifluoromethyl)phenyl]methyl}-2-(2-acetamido-1,3-thiazol-4-yl)-4-[(5'R)-5'-methylspiro[indene-1,4'-piperidine]-1'-yl]butanamide] is 9.22; for `CC(=O)Nc1nc([C@@H](CCN2CCC3(C=Cc4ccccc43)CC2)C(=O)NCc2cc(C(F)(F)F)cc(C(F)(F)F)c2)cs1` [(2R)-N-{[3,5-bis(trifluoromethyl)phenyl]methyl}-2-(2-acetamido-1,3-thiazol-4-yl)-4-{spiro[indene-1,4'-piperidine]-1'-yl}butanamide] it is 7.57; for `CNC(=O)Nc1nc([C@H](CCN2CCC(c3ccccc3)CC2)C(=O)NCc2cc(C(F)(F)F)cc(C(F)(F)F)c2)cs1` [(S)-1-(4-(1-(3,5-bis(trifluoromethyl)benzylamino)-1-oxo-4-(4-phenylpiperidin-1-yl)butan-2-yl)thiazol-2-yl)-3-methylurea] it is 8.74. `CC(=O)Nc1nc([C@H](CCN2CCC3(C=Cc4ccccc43)CC2)C(=O)NCc2cc(C(F)(F)F)cc(C(F)(F)F)c2)cs1` [(2S)-N-{[3,5-bis(trifluoromethyl)phenyl]methyl}-2-(2-acetamido-1,3-thiazol-4-yl)-4-{spiro[indene-1,4'-piperidine]-1'-yl}butanamide] gave a pIC50 of 8.28.

`CNC(=O)Nc1nc([C@@H](CCN2CCC(c3ccccc3)CC2)C(=O)NCc2cc(C(F)(F)F)cc(C(F)(F)F)c2)cs1` [(R)-1-(4-(1-(3,5-bis(trifluoromethyl)benzylamino)-1-oxo-4-(4-phenylpiperidin-1-yl)butan-2-yl)thiazol-2-yl)-3-methylurea] showed a pIC50 of 7.06.
